Results from patent publication US9345742B2, “Aminostatin derivatives for the treatment of arthrosis” (MERCK PATENT GMBH, priority 2011, dated 2016).

Columns and labels:
bovine explants = assay: Cartilage explant assay (pH-induced cartilage degradation, GAG liberation); type: cell-based; conditions: Bos taurus, 72 h, pH 5.5, 3 days
Description: In order to investigate the effect of potential cathepsin D inhibitors on cartilage degradation, a pH-induced model based on bovine explants is used. The pH of the medium in which the explants are cultivated is matched here to the pathophysiological pH of an arthrotic knee. This pH is pH 5.5. In this ex vivo model, potential cathepsin D inhibitors are subsequently investigated for their action with respect to stopping of the cartilage degradation process. If the cartilage is destroyed, glycosaminoglycans (GAGs) are released into the cell culture supernatant. The amount of GAGs liberated can be determined quantitatively with the aid of DMMB (dimethylmethylene blue hydrochloride). If sulfated GAGs are detected using dimethylmethylene blue hydrochloride, the decrease in the absorption at 633 nm is utilised. […] In order to determine the concentration, a calibration line is also recorded using chondroitin sulfate.
The bovine explants are firstly prepared. The induction of the cartilage degradation is carried out in 96-multiwell plates. One explant is cultivated per well. In each case, 200 μl of DMEM (incubation medium pH 5.5) without FBS+30 μg/ml of ascorbic acid are added. Thus negative control, explants (n=4) are incubated at pH 7.4 (without FBS). This control is not included in the calculation of the data, but instead ensures that the pH change has the desired effect on the liberation of GAG. At this point, the substances to be tested are added. No preincubation of the explants is carried out. The explants are cultivated with the corresponding substances for 3 days in the incubator at 37° C. and 7.5% CO2.
In order to investigate the effect of cathepsin D inhibitors on the liberation of GAG (glycosaminoglycan), the substances are employed in the desired concentration and cultivated for 3 days. The compounds to be tested are tested in a first experiment in a concentration of 1 μM and 1% of DMSO. Substances which have an effect of >50% on the liberation of GAG (this corresponds to <50% of the control in the Assay Explorer) are tested in the next experiment at 100 nM and 1% of DMSO. Substances which have an effect of >50% on the liberation of GAG under these conditions (this corresponds to <50% of the control in the Assay Explorer) are tested in a concentration/effect relationship. The compounds here are investigated in the following concentrations: 30 μM, 10 μM, 3 μM, 1 μM, […], 0.1 μM, 0.03 μM, 0.01 μM.
The positive control used is pepstatin A with a concentration of 0.01 μM. The assay window is defined by the control (pH 5.5), defined as 0% effect, and the control pH 5.5+0.01 μM pepstatin A, defined as 100% effect. After incubation for 3 days, the cell culture supernatants are collected and stored at −20° C. or measured directly. The amount of liberated GAG is measured photometrically.
The effect (1 value) of the respective substance in % based on the positive control (pH 5.5+0.01 μM pepstatin A) and the negative control (pH 5.5) is reported for concentrations of 1 μM and 100 nM. The value represents the average of 4 replicants. In the determination of a concentration/effect relationship, an IC50 value is reported to the database (Assay Explorer).
The cell culture supernatants (200 μl) are either measured directly or stored at −20° C. In order to ensure an accurate determination of the concentration (μg/ml of GAG in the supernatant) of GAG, the measurement values must be located in the linear region of the standard curve. In order to ensure this, various dilutions are routinely introduced (1/5, 1/10, 1/20, 1/40). The dilutions are prepared with medium and introduced automatically (Hamilton) into a 384-well plate (15 μl). 60 μl of DMMB solution are likewise added automatically (or using a multichannel pipette). A rapid colour reaction occurs, which is subsequently measured at 633 nm using a plate reader (for example Envision).

recombinant human renin = recombinant human renin (Homo sapiens (Human), UniProt P00797); assay: In-vitro fluorescence assay for identification of renin-inhibitory activity; type: biochemical; conditions: recombinant human renin 10 nM, pH 7.2; read-out: Renin selectivity IC50
recombinant human renin, sequence (P00797 67-406): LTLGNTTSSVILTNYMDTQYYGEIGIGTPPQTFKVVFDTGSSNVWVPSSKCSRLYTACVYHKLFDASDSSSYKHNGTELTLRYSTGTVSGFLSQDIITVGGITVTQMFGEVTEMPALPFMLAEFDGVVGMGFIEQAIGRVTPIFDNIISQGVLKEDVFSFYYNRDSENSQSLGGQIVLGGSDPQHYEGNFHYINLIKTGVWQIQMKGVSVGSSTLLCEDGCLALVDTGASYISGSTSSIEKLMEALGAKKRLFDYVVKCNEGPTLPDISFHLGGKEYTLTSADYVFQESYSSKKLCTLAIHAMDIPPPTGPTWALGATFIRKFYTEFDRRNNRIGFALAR
In short: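 Recombinant human renin (10 nM) pre-incubated 15 min at RT with serially diluted compound in 50 mM Mops pH 7.2, 1.5% DMSO, 0.1% Igepal, 0.5% BSA; Edans/Dabcyl FRET peptide (5 µM final) added, 60 min at 37 °C; cleavage read as fluorescence increase (ex 340/em 495 nm) against no-compound wells.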

- IC50 (recombinant human renin): > 30000 nM
SMILES: CCC(CC)NC(=O)[C@@H](NC(=O)C[C@H](N)[C@H](Cc1ccccc1)NC(=O)[C@@H](NC(=O)[C@H](CC(C)C)NC(=O)CC(C)C)C(C)C)[C@@H](C)CC [Compound 39, N-[(1S,2S)-1-(1-Ethylpropylcarbamoyl)-2-methylbutyl]-(S)-3-(S)-amino-4-{(S)-3-methyl-2-[(S)-4-methyl-2-(3-methylbutyryl-amino)pentanoylamino]butyrylamino}-5-phenylpentanamide]
- IC50 (bovine explants): 0.233 nM
